Laboratory results from patent US20260152527A1, “NOVEL MELANOCORTIN ANALOGS” (priority 2022, published 2026).
Positions of bridges follow the written chain, without caps; N, C: chain ends. Non-standard residues stand in square brackets, D forms with d. Residues, ends and D or L forms follow the SMILES beside them. Triazole bridges read from a SMILES are 1,4-linked. dPhe(4-CF3) = N[C@H](Cc1ccc(C(F)(F)F)cc1)C(=O)O; Lys(N3) = [N-]=[N+]=NCCCC[C@H](N)C(=O)O; Orn(N3) = [N-]=[N+]=NCCC[C@H](N)C(=O)O; hArg = N=C(N)NCCCC[C@H](N)C(=O)O; R8 = C=CCCCCCC[C@@](C)(N)C(=O)O; Aad = N[C@@H](CCCC(=O)O)C(=O)O; S5 = C=CCCC[C@](C)(N)C(=O)O; Hpra = C#CCC[C@H](N)C(=O)O; Nle = CCCC[C@H](N)C(=O)O; Pra = C#CC[C@H](N)C(=O)O

What follows are compounds tested against T1, human recombinant MC5R (Homo sapiens, UniProt P33032) (assay: Ca2+ signalling functional assay, MC5R stable cell line (CHO-K1/Ga15)). Details: calcium flux functional assay.
T1 construct: host or cells: CHO-K1/Ga15
Type: cell-based
Experimental: The Ca^2+ signalling functional assay was performed on a human recombinant MC5R stable cell line (CHO-K1/Ga15, GenScript). The cells were cultured at 37° C. and 5% C02 with culture medium (90% Ham's F-12K (Kaighn's)+10% FBS+400 μg/mL G418+100 μg/mL Hygromycin B). Cells were washed with PBS and then detached by incubation with 0.05% (w/v) Trypsin EDTA at 37° C. for 2 to 5 mins. Detached cells were suspended in Ham's F-12K (Kaighn's) (containing 10% FBS) and a 50 μL cell suspension is seeded into each well of a 384-well assay plate at a density of 15,000 cells/well. Cells were allowed to settle overnight at 37° C., 5% CO2. […] Then, 100 nL of compounds were transferred to the compound plate by the Echo machine. Thirty microliter assay buffer was added to the compounds plate and then shaken for 20-40 minutes. The plates were placed on the FLIPR and 15 μL of the compound was added to each well, then calcium flux signal was measured.

T1 sequence (P33032 whole entry): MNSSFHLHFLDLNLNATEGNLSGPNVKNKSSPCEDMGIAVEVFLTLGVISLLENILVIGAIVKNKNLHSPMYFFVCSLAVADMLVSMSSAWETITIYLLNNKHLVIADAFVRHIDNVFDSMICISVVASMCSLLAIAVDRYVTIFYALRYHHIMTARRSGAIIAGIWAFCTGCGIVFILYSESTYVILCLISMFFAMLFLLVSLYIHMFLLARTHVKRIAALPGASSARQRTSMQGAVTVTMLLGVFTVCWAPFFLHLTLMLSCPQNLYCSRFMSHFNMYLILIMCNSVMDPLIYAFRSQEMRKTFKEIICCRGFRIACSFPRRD

Compound | IC50 | MC5R IC50
CCCC[C@H](NC(C)=O)C(=O)N[C@H]1CCCn2cc(nn2)CC[C@@H](C(=O)N[C@@H](CCCCN)C(N)=O)NC(=O)[C@H](Cc2c[nH]c3ccccc23)NC(=O)[C@H](CCCNC(=N)N)NC(=O)[C@@H](Cc2ccccc2)NC(=O)[C@H](Cc2c[nH]cn2)NC1=O [KR-068, Ac-Nle-[Orn(N3)-His-DPhe-Arg-Trp-Hpra]-Lys-NH2] (Ac-[Nle][Orn(N3)]H[dF]RW[Hpra]K-NH2; triazole 2-7) | 40.3 nM | 
CC(=O)N[C@]1(C)CCCCCCC=CCCC[C@@](C)(C(N)=O)NC(=O)CNC(=O)[C@H](Cc2c[nH]c3ccccc23)NC(=O)[C@H](CCCNC(=N)N)NC(=O)[C@H](Cc2ccccc2)NC(=O)[C@H](Cc2c[nH]cn2)NC(=O)[C@H](CCC(=O)O)NC1=O [KR-015, Ac-R8-Glu-His-Phe-Arg-Trp-Gly-S5-NH2] (Ac-[R8]EHFRWG[S5]-NH2; staple 1-8) | > 10000 nM | 
CCCC[C@H](NC(C)=O)C(=O)N[C@H]1CCCCn2cc(nn2)C[C@@H](C(N)=O)NC(=O)[C@H](Cc2c[nH]c3ccccc23)NC(=O)[C@H](CCCNC(=N)N)NC(=O)[C@H](Cc2ccccc2)NC(=O)[C@H](Cc2c[nH]cn2)NC1=O [KR-008, Ac-Nle-[Lys(N3)-His-Phe-Arg-Trp-Pra]-NH2] (Ac-[Nle][Lys(N3)]HFRW[Pra]-NH2; triazole 2-7) | > 10000 nM | 
CC(=O)N[C@H]1CCCCn2cc(nn2)C[C@@H](C(N)=O)NC(=O)CNC(=O)[C@H](Cc2c[nH]c3ccccc23)NC(=O)[C@H](CCCNC(=N)N)NC(=O)[C@H](Cc2ccccc2)NC(=O)[C@H](Cc2c[nH]cn2)NC(=O)[C@H](CCC(=O)O)NC1=O [KR-010, Ac-[Lys(N3)-Glu-His-Phe-Arg-Trp-Gly-Pra]-NH2] (Ac-[Lys(N3)]EHFRWG[Pra]-NH2; triazole 1-8) | > 10000 nM | 
CC(=O)N[C@@H](CCC(=O)O)C(=O)N[C@@H](Cc1c[nH]cn1)C(=O)N[C@@H](Cc1ccccc1)C(=O)N[C@@H](CCCNC(=N)N)C(=O)N[C@@H](Cc1c[nH]c2ccccc12)C(=O)NCC(=O)N[C@@H](CCCCN)C(=O)N1CCC[C@H]1C(=O)N[C@H](C(N)=O)C(C)C [KR-004] | > 10000 nM | 
Ac-EHFRWGKP-NH2 [KR-007] | > 10000 nM | 
N=C(N)NCCC[C@@H]1NC(=O)[C@H](Cc2ccccc2)NC(=O)[C@H](Cc2c[nH]cn2)NC(=O)[C@H](CCC(=O)O)NC(=O)CSC[C@@H](C(N)=O)NC(=O)CNC(=O)[C@H](Cc2c[nH]c3ccccc23)NC1=O [KR-012, Cyclo(-Ac-Glu-His-Phe-Arg-Trp-Gly-Cys)-NH2] ({CH2CO}-EHFRWGC-NH2; thioether N-7) |  | Not fit

Each compound was assayed against T2, human recombinant MC3R (Homo sapiens, UniProt P41968) (assay: Ca2+ signalling functional assay, MC3R stable cell line (CHO-K1/Gα15)). Details: calcium flux functional assay.
T2 construct: host or cells: CHO-K1/Gα15
Type: cell-based
Experimental: The Ca^2+ signalling functional assay was performed on a human recombinant MC3R stable cell line (CHO-K1/Gα15, GenScript). The cells were cultured at 37° C. and 5% CO2 with culture medium (90% Ham's F-12K (Kaighn's)+10% FBS+200 μg/mL Zeocin+100 μg/mL Hygromycin B). Cells were washed with PBS and then detached by incubation with 0.05% (w/v) Trypsin EDTA at 37° C. for 2-5 mins. Detached cells were suspended in Ham's F-12K (Kaighn's) (containing 10% FBS) and a 50 μL cell suspension was seeded into each well of a 384-well assay plate at a density of 10,000 cells/well. Cells were allowed to settle overnight at 37° C., 5% CO2. […] The compounds and reference compound ACTH were diluted in 4 folds starting from 50 uM. Then, 500 nL of compounds were transferred to the compound plate by the Echo machine. 30 uL assay buffer was added into the compounds plate and then shaken for 20-40 minutes. The plates were then placed on the FLIPR Tetra High-Throughput Cellular Screening System (FLIPR®, Molecular Devices) and 15 μL of the compound was added to each well, then calcium flux signal was measured.

T2 sequence (P41968 whole entry): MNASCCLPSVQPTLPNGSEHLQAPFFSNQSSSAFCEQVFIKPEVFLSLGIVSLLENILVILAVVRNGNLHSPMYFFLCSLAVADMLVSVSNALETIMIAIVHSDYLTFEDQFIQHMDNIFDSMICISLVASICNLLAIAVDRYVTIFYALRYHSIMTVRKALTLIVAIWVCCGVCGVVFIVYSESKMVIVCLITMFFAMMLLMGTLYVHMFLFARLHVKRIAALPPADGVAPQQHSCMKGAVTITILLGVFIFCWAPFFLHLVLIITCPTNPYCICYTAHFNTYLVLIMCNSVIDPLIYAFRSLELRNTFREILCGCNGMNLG

Compound | IC50
CCCC[C@H](NC(C)=O)C(=O)N[C@H]1CCCCn2cc(nn2)C[C@@H](C(N)=O)NC(=O)[C@H](Cc2c[nH]c3ccccc23)NC(=O)[C@H](CCCNC(=N)N)NC(=O)[C@@H](Cc2ccc(C(F)(F)F)cc2)NC(=O)[C@H](Cc2c[nH]cn2)NC1=O [KR-048, Ac-Nle-[Lys(N3)-His-Dphe(4-CF3)-Arg-Trp-Pra]-NH2] (Ac-[Nle][Lys(N3)]H[dPhe(4-CF3)]RW[Pra]-NH2; triazole 2-7) | > 50000 nM

Each compound was assayed against T3, human recombinant MC1R (Homo sapiens, UniProt Q01726) (assay: cyclic AMP (cAMP) functional assay, MC1R stable cell line (CHO-K1)). Details: cAMP functional assay.
T3 construct: host or cells: CHO-K1
Type: cell-based
Experimental: The cyclic AMP (cAMP) functional assay was performed on a human recombinant MC1R stable cell line (CHO-K1, GenScript). The cells were cultured at 37° C. and 5% CO2 with culture medium (90% Ham's F-12K (Kaighn's)+10% FBS+400 μg/mL G418). […] Then, 100 nL of compounds were transferred to the assay plate by the Echo machine. Cells were washed with PBS and then detached by incubation with 0.05% (w/v) Trypsin EDTA at 37° C. for 2 to 5 mins. Cells were collected with stimulation buffer (1×HBSS with 5 mM HEPES+0.2 mM IBMX+0.1% BSA) and 10 ul of cells (the density of 2,500 cells/well) solution was transferred to assay plate, centrifuged at 600 rpm for 3 min and then incubated with compounds at room temperature for 60 min. After that, 5 μL 4×Eu-cAMP tracer solution and 5 μL 4×ULight™-anti-cAMP solution was added into the cells, centrifuged at 600 rpm for 3 min and incubated for 60 min. The cAMP signal was detected with Envision® Multimode Plate Reader (PerkinElmer).

T3 sequence (Q01726 whole entry): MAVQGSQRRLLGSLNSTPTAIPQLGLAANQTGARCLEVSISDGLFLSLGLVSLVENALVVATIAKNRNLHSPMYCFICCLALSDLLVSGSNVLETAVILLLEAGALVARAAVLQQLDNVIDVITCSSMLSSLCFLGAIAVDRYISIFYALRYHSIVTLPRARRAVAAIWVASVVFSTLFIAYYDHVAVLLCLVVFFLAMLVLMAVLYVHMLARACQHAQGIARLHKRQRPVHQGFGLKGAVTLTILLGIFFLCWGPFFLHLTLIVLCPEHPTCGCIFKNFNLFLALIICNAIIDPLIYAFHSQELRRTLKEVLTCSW

Compound | IC50
CCCC[C@H](NC(C)=O)C(=O)N[C@H]1CCCCn2cc(nn2)C[C@@H](C(=O)N[C@@H](CCCC(N)=O)C(N)=O)NC(=O)[C@H](Cc2c[nH]c3ccccc23)NC(=O)[C@H](CCCNC(=N)N)NC(=O)[C@@H](Cc2ccccc2)NC(=O)[C@H](Cc2c[nH]cn2)NC1=O [KR-057, Ac-Nle-[Lys(N3)-His-DPhe-Arg-Trp-Pra]-Hgln-NH2] (Ac-[Nle][Lys(N3)]H[dF]RW[Pra][Aad](NH2)-NH2; triazole 2-7) | 0.024 nM
CCCC[C@H](NC(C)=O)C(=O)N[C@H]1CCCCn2cc(nn2)C[C@@H](C(=O)N[C@@H](CCCCN)C(N)=O)NC(=O)[C@H](Cc2c[nH]c3ccccc23)NC(=O)[C@H](CCCCNC(=N)N)NC(=O)[C@@H](Cc2ccccc2)NC(=O)[C@H](Cc2c[nH]cn2)NC1=O [KR-054, Ac-Nle-[Lys(N3)-His-DPhe-HArg-Trp-Pra]-Lys-NH2] (Ac-[Nle][Lys(N3)]H[dF][hArg]W[Pra]K-NH2; triazole 2-7) | 0.093 nM
CSCC[C@H](NC(=O)[C@H](CO)NC(=O)[C@H](Cc1ccc(O)cc1)NC(=O)[C@H](CO)NC(C)=O)C(=O)N[C@@H](CCC(=O)O)C(=O)N[C@@H](Cc1c[nH]cn1)C(=O)N[C@@H](Cc1ccccc1)C(=O)N[C@@H](CCCNC(=N)N)C(=O)N[C@@H](Cc1c[nH]c2ccccc12)C(=O)NCC(=O)N[C@@H](CCCCN)C(=O)N1CCC[C@H]1C(N)=O [KR-005] | 0.093 nM
CCCC[C@H](NC(C)=O)C(=O)N[C@H]1CCCn2cc(nn2)CC[C@@H](C(=O)N[C@@H](CCCCN)C(N)=O)NC(=O)[C@H](Cc2c[nH]c3ccccc23)NC(=O)[C@H](CCCNC(=N)N)NC(=O)[C@@H](Cc2ccccc2)NC(=O)[C@H](Cc2c[nH]cn2)NC1=O [KR-068, Ac-Nle-[Orn(N3)-His-DPhe-Arg-Trp-Hpra]-Lys-NH2] (Ac-[Nle][Orn(N3)]H[dF]RW[Hpra]K-NH2; triazole 2-7) | 0.04 nM

These compounds were tested against T4, human recombinant MC4R (Homo sapiens, UniProt P32245) (assay: Ca2+ signalling functional assay, MC4R stable cell line (CHO-K1/Gα15)). Details: calcium flux functional assay.
T4 construct: host or cells: CHO-K1/Gα15
Type: cell-based
Experimental: The Ca^2+ signalling functional assay was performed on a human recombinant MC4R stable cell line (CHO-K1/Gα15, GenScript). The cells were cultured at 37° C. and 5% CO2 with culture medium (90% Ham's F-12K (Kaighn's)+10% FBS+8 μg/mL Puromycin+100 μg/mL Hygromycin B). Cells were washed with PBS and then detached by incubation with 0.05% (w/v) Trypsin EDTA at 37° C. for 2-5 mins. Detached cells were suspended in Ham's F-12K (Kaighn's) (containing 10% FBS) and a 50 μL cell suspension was seeded into each well of a 384-well assay plate at a density of 15,000 cells/well. Cells were allowed to settle overnight at 37° C., 5% CO2. The next day, the assay plate was centrifuged and the media was replaced with dye (1×) in assay buffer (containing HBSS, HEPES 20 mM and probenecid 1 mM) and incubated for 1 h at 37° C. […] Then, 100 nL of compounds were transferred to the compound plate by the Echo machine. 30 μL assay buffer was added to the compounds plate and then shaken for 20 to 40 minutes. The plates were placed on the FLIPR and 15 μL of the compound was added to each well, then calcium flux signal was measured.

T4 sequence (P32245 whole entry): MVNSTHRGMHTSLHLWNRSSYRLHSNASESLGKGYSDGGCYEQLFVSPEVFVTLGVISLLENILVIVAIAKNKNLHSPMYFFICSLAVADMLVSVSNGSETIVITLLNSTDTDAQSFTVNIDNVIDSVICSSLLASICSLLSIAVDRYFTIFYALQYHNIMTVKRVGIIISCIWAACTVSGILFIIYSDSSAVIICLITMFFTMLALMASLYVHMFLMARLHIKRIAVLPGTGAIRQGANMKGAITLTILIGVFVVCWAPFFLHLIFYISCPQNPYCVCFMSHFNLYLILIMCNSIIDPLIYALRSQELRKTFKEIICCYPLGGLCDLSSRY

Compound | IC50
CSCC[C@H](NC(=O)[C@H](CO)NC(=O)[C@H](Cc1ccc(O)cc1)NC(=O)[C@H](CO)NC(C)=O)C(=O)N[C@@H](CCC(=O)O)C(=O)N[C@@H](Cc1c[nH]cn1)C(=O)N[C@@H](Cc1ccccc1)C(=O)N[C@@H](CCCNC(=N)N)C(=O)N[C@@H](Cc1c[nH]c2ccccc12)C(=O)NCC(=O)N[C@@H](CCCCN)C(=O)N1CCC[C@H]1C(N)=O [KR-005] | 67.1 nM
